Among the data in ChEMBL document CHEMBL1126739, “Excursions in drug discovery” (J Med Chem, 1993) are IC50 and inhibition values, retold here.

Structures are written as SMILES.

For test [1], the target named is T1, Angiotensin-converting enzyme (Homo sapiens, UniProt P12821). Description: Inhibition of Angiotensin I converting enzyme.
In test [2] the target is T1, Angiotensin-converting enzyme. In words: Inhibition of Angiotensin I converting enzyme at 3.3 x 10 E -4M concentration.
A further test has as its target T2, Thermolysin (Bacillus thermoproteolyticus, UniProt P00800).
T2 sequence (P00800 whole entry): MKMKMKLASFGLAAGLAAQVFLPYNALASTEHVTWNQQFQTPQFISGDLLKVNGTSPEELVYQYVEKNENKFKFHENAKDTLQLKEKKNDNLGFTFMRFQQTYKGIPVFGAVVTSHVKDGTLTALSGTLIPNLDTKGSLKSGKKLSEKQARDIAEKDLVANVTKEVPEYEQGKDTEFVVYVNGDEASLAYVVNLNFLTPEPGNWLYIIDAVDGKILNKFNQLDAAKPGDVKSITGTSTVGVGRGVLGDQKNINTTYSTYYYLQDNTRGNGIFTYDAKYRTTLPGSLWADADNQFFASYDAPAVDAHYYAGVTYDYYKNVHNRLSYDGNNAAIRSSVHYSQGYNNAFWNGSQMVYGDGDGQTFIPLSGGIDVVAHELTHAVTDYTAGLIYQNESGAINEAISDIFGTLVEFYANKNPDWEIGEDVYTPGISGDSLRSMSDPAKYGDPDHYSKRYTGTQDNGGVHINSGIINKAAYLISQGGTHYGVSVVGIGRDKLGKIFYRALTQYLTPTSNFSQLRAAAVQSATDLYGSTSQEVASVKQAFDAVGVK
In words: Inhibition of metallopeptidase thermolysin.

Another test deals with T3, Renin (Homo sapiens, UniProt P00797).
T3 sequence (P00797 whole entry): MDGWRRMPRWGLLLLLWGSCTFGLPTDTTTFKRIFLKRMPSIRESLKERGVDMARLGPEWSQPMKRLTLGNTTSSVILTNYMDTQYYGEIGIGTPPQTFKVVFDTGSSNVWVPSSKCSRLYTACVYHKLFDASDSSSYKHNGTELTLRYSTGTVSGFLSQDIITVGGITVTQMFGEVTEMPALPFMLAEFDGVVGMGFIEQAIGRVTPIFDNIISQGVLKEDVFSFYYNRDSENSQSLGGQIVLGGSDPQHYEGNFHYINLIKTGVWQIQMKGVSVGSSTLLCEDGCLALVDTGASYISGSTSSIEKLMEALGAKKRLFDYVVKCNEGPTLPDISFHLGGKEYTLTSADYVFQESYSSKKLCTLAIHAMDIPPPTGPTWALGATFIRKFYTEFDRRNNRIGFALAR
Description: Inhibition of human renin.

The target in test [3] is T4, Cholecystokinin receptor type A (Homo sapiens, UniProt P32238).
T4 sequence (P32238 whole entry): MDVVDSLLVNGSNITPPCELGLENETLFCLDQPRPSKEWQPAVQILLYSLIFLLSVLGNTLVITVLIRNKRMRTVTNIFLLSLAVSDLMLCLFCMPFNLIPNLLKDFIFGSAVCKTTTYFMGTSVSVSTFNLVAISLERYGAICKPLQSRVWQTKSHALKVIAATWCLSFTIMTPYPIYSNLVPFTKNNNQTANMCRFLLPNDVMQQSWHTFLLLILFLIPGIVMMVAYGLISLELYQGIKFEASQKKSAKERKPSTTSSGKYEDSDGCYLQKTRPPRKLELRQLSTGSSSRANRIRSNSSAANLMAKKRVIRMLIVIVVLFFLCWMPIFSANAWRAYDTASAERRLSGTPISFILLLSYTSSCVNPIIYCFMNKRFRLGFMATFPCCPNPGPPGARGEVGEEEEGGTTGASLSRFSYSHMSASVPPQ
Description: Antagonistic activity against cholecystokinin type A receptor. It counts as functional.

T1 sequence (P12821 whole entry): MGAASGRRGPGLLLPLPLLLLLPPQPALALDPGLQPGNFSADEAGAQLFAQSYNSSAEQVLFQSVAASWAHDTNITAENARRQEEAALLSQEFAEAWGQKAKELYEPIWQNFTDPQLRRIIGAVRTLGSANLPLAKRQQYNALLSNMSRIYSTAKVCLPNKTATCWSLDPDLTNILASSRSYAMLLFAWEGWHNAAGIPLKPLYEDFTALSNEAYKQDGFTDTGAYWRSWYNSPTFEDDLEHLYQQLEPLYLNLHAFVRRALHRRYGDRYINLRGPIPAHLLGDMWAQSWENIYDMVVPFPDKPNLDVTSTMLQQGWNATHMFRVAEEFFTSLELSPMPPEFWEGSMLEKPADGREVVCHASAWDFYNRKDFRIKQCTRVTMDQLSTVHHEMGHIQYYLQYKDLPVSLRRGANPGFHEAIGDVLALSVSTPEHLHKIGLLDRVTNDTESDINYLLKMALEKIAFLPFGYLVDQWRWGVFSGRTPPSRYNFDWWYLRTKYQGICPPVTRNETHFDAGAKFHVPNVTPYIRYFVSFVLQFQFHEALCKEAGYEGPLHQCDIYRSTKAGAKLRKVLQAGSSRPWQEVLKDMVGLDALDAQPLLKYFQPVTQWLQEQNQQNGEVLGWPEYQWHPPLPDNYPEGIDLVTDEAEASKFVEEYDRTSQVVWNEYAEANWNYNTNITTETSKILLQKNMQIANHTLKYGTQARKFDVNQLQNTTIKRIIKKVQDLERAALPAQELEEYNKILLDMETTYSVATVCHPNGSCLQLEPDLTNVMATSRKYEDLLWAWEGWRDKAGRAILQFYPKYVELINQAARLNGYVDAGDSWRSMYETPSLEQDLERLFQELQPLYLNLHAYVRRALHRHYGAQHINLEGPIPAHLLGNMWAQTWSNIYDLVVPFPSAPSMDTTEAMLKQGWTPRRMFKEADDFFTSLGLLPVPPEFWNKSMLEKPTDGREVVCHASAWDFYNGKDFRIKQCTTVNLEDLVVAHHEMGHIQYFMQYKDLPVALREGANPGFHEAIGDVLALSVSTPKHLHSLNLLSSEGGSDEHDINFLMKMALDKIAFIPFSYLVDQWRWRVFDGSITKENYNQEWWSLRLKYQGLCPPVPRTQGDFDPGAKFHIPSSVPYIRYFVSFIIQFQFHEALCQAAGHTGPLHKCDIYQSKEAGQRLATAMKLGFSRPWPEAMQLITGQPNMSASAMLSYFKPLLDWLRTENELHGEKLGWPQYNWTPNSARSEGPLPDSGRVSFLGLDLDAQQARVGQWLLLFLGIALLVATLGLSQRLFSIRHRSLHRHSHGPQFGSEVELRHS

As usually defined, the IC50 is the midpoint of a concentration-inhibition curve. High values mean lower potency, low ones higher potency. On to `CC(N[C@H](C)C(=O)N1CCC[C@H]1C(=O)O)C(=O)O` (some centres undefined), for which, in test [1], the midpoint of inhibition, the IC50, lay at 90 nM.
`CC(CCC(=O)N1CCCC1C(=O)O)C(=O)O` (centres undefined) showed an IC50 in test [1] of 260000 nM.
As a reminder, the inhibition is the percentage by which the read-out fell short of the control. With `O=C(O)CCC(=O)N1CCCC1C(=O)O` (centres undefined), the inhibition in test [2] was 43%.
At Thermolysin, `CC(NP(=O)(O)CCc1ccccc1)C(=O)N1CCCC1C(=O)O` (centres undefined) returned an IC50 of 7 nM.
In the case of `CC(C)(C)S(=O)(=O)C[C@@H](Cc1ccccc1)C(=O)NC1CSCCC[C@H](CN2CCOCC2)OC(=O)[C@H](O)[C@H](CC2CCCCC2)NC1=O` (some centres undefined), 0.35 nM corresponded to half-maximal inhibition against Renin (IC50).
In turn, `CC(C)C[C@@H]1N[C@H]2N(C1=O)c1ccccc1[C@@]2(O)C[C@@H]1NC(=O)c2ccccc2-n2c1nc1ccccc1c2=O` [ASPERLICIN] registered a half-maximal inhibitory concentration (IC50) in test [3] of 1400 nM.
As to `C[C@@H](NCC(=O)O)C(=O)N1CCC[C@H]1C(=O)O`, 2400 nM corresponded to half-maximal inhibition in test [1] (IC50).
In the case of `C[C@@H](CCC(=O)O)C(=O)N1CCCC1C(=O)O` (some centres undefined), the half-inhibitory concentration (IC50) in test [1] is 4900 nM.
Consider `O=C(CCC(=O)N1CCCC1C(=O)O)NO` (centres undefined), for which, in test [1], the IC50 came to 50000 nM.
